# Laboratory results reported in patent US9315490B2, “2,5-substituted pyrimidines” (Grünenthal GmbH, priority 2014, dated 2016).
# Target: T1, human PDE4B1 (Homo sapiens, UniProt Q07343)
# T1 construct: host or cells: Sf9 cells
# Assay: cAMP HTRF assay to determine the activity of hPDE4B1
# Type: biochemical
# Conditions: inhibition of PDE4B at a test concentration of 1 μM; for Inhibition in %: 1 µM
# Summary of the method: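 […], using HTRF quantitation of residual cAMP after 1 mM IBMX stop and 60 min detection. Enzyme was Sf9-expressed human PDE4B1 incubated 30 min at room temperature with 40 nM final cAMP at pH 7.8.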
# T1 sequence (Q07343 whole entry): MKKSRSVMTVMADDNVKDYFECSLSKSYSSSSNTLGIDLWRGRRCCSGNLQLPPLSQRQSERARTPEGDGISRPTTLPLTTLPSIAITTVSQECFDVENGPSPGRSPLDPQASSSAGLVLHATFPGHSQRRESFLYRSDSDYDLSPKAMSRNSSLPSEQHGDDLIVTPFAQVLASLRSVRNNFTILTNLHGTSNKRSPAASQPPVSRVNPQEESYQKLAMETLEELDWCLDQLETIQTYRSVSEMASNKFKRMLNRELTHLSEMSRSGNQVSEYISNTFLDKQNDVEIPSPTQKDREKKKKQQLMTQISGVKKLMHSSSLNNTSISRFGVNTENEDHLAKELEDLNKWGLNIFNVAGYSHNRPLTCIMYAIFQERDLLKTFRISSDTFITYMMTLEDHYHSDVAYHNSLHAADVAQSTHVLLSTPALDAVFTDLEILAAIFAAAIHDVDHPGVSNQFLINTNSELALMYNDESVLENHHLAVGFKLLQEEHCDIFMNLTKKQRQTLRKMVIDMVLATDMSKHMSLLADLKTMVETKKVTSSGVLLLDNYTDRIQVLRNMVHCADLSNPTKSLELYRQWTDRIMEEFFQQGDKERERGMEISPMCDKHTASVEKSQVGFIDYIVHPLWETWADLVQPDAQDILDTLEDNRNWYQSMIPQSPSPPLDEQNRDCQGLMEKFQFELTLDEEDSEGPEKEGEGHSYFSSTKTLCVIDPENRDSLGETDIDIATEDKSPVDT
Inhibition in %,inhibition at 1 µM,SMILES
92%,–,"COc1ccc(F)c(-c2cnc(-n3cc([S+](C)[O-])c4ccc(C(=O)N5CCNC(=O)C5)cc43)nc2)c1 (single isomer, unassigned) [Example 214, 4-(1-(5-(2-Fluoro-5-methoxyphenyl)pyrimidin-2-yl)-3-(methylsulfinyl)-1H-indole-6-carbonyl)piperazin-2-one]"
120%,–,"CC(O)c1cn(-c2ncc(-c3ccccc3F)cn2)c2cc(C(=O)N3CCOCC3)ccc12 (single isomer, unassigned) [Example 253, (1-(5-(2-Fluorophenyl)pyrimidin-2-yl)-3-(1-hydroxyethyl)-1H-indol-6-yl)(morpholino)methanone]"
–,90%,"C[S+]([O-])c1cn(-c2ncc(-c3cccc(F)c3)cn2)c2cc(C(=O)N3CCOCC3)ccc12 (stereo not shown) [Example 34, (1-(5-(3-Fluorophenyl)pyrimidin-2-yl)-3-(methylsulfinyl)-1H-indol-6-yl)(morpholino)methanone]"
–,31%,"C[S+]([O-])c1cn(-c2ncc(-c3ccccc3F)cn2)c2cc(C(=O)N3CCN(CCC#N)CC3)ccc12 (stereo not shown) [Example 391, 3-(4-(1-(5-(2-Fluorophenyl)pyrimidin-2-yl)-3-(methylsulfinyl)-1H-indole-6-carbonyl)piperazin-1-yl)propanenitrile]"
–,61%,"C[S+]([O-])c1cn(-c2ncc(-c3ccncc3)cn2)c2cc(C(=O)N3CCOCC3)ccc12 (stereo not shown) [Example 47, (3-(Methylsulfinyl)-1-(5-(pyridin-4-yl)pyrimidin-2-yl)-1H-indol-6-yl)(morpholino)methanone]"
–,109%,"COc1cccc(-c2cnc(-n3cc([S+](C)[O-])c4ccc(C(=O)N5CCNC(=O)C5)cc43)nc2)c1 (single isomer, unassigned) [Example 217, 4-(1-(5-(3-Methoxyphenyl)pyrimidin-2-yl)-3-(methylsulfinyl)-1H-indole-6-carbonyl)piperazin-2-one]"
–,39%,"COC(=O)CN(C)C(=O)c1ccc2c([S+](C)[O-])cn(-c3ncc(-c4ccccc4F)cn3)c2c1 (stereo not shown) [Example 177, Methyl 2-(1-(5-(2-fluorophenyl)pyrimidin-2-yl)-N-methyl-3-(methylsulfinyl)-1H-indole-6-carboxamido)acetate]"
–,98%,"CC(O)c1cn(-c2ncc(-c3ccccc3F)cn2)c2cc(C(=O)N3CCOCC3)ccc12 (stereo not shown) [Example 28, (1-(5-(2-fluorophenyl)pyrimidin-2-yl)-3-(1-hydroxyethyl)-1H-indol-6-yl)(morpholino)methanone]"
–,63%,COC[C@@H]1CCCN1C(=O)c1ccc2c([S+](C)[O-])cn(-c3ncc(-c4ccccc4F)cn3)c2c1 (stereo partly shown) [Example 71]
–,47%,"C[S+]([O-])c1cn(-c2ncc(-c3ccccc3F)cn2)c2cc(C(=O)NC3COC3)ccc12 (stereo not shown) [Example 75, 1-(5-(2-Fluorophenyl)pyrimidin-2-yl)-3-(methylsulfinyl)-N-(oxetan-3-yl)-1H-indole-6-carboxamide]"
–,103%,"C[S+]([O-])c1cn(-c2ncc(-c3ccccc3F)cn2)c2cc(C(=O)N3CCC[C@H]3CO)ccc12 (stereo partly drawn) [Example 79, (1-(5-(2-Fluorophenyl)pyrimidin-2-yl)-3-(methylsulfinyl)-1H-indol-6-yl)((S)-2-(hydroxymethyl)pyrrolidin-1-yl)methanone]"
–,110%,"Cc1ccnc(-c2cnc(-n3cc([S+](C)[O-])c4ccc(C(=O)N5CCOCC5)cc43)nc2)c1 (racemic) [Example 142, (1-(5-(4-methylpyridin-2-yl)pyrimidin-2-yl)-3-(methylsulfinyl)-1H-indol-6-yl)(morpholino)methanone]"
94%,–,"Cc1cccc(-c2cnc(-n3cc([S+](C)[O-])c4ccc(C(=O)N5CCNC(=O)C5)cc43)nc2)c1 (single isomer, unassigned) [Example 216, 4-(3-(Methylsulfinyl)-1-(5-(m-tolyl)pyrimidin-2-yl)-1H-indole-6-carbonyl)piperazin-2-one]"
–,95%,"COc1ccc(F)c(-c2cnc(-n3cc(S(C)(=O)=O)c4ccc(C(=O)N5CCOCC5)cc43)nc2)c1 [Example 162, (1-(5-(2-Fluoro-5-methoxyphenyl)pyrimidin-2-yl)-3-(methylsulfonyl)-1H-indol-6-yl)(morpholino)methanone]"
–,10%,"CCOC(=O)C1CCN(C(=O)c2ccc3c([S+](C)[O-])cn(-c4ncc(-c5ccccc5F)cn4)c3c2)CC1 (stereo not shown) [Example 393, Ethyl 1-(1-(5-(2-fluorophenyl)pyrimidin-2-yl)-3-(methylsulfinyl)-1H-indole-6-carbonyl)piperidine-4-carboxylate]"
–,57%,"C[S+]([O-])c1cn(-c2ncc(-c3ccccc3)cn2)c2cc(C(=O)N3C[C@H]4C[C@@H]3CN4)ccc12 (stereo partly drawn) [Example 232, (1R,4R)-2,5-Diazabicyclo[2.2.1]heptan-2-yl(3-(methylsulfinyl)-1-(5-phenylpyrimidin-2-yl)-1H-indol-6-yl)methanone]"

Inhibition in %,inhibition at 1 µM,SMILES
–,90%,"C[S+]([O-])c1cn(-c2ncc(-c3cccc(S(C)(=O)=O)c3)cn2)c2cc(C(=O)N3CCOCC3)ccc12 (stereo not shown) [Example 36, (3-(Methylsulfinyl)-1-(5-(3-(methylsulfonyl)phenyl)pyrimidin-2-yl)-1H-indol-6-yl)(morpholino)methanone]"
–,88%,"C[C@H]1COCCN1C(=O)c1ccc2c([S+](C)[O-])cn(-c3ncc(-c4ccccc4F)cn3)c2c1 (stereo partly drawn) [Example 178, (1-(5-(2-Fluorophenyl)pyrimidin-2-yl)-3-(methylsulfinyl)-1H-indol-6-yl)((S)-3-methylmorpholino)methanone]"
–,70%,"C[S+]([O-])c1cn(-c2ncc(-c3ccccc3F)cn2)c2cc(C(=O)N3CCC[C@@H]3CO)ccc12 (stereo partly drawn) [Example 78, (1-(5-(2-Fluorophenyl)pyrimidin-2-yl)-3-(methylsulfinyl)-1H-indol-6-yl)((R)-2-(hydroxymethyl)pyrrolidin-1-yl)methanone]"
–,89%,"C[S+]([O-])c1cn(-c2ncc(-c3ccccc3)cn2)c2cc(C(=O)N3CC[C@@H](N)C3)ccc12 (stereo partly drawn) [Example 223, ((R)-3-Aminopyrrolidin-1-yl)(3-(methylsulfinyl)-1-(5-phenylpyrimidin-2-yl)-1H-indol-6-yl)methanone]"
–,72%,"C[S+]([O-])c1cn(-c2ncc(-c3cccnc3)cn2)c2cc(C(=O)N3CCOCC3)ccc12 (stereo not shown) [Example 49, (3-(Methylsulfinyl)-1-(5-(pyridin-3-yl)pyrimidin-2-yl)-1H-indol-6-yl)(morpholino)methanone]"
–,115%,"C[C@H]1CN(C(=O)c2ccc3c([S+](C)[O-])cn(-c4ncc(-c5ccccc5F)cn4)c3c2)CCO1 (stereo partly drawn) [Example 85, (1-(5-(2-Fluorophenyl)pyrimidin-2-yl)-3-(methylsulfinyl)-1H-indol-6-yl)((S)-2-methylmorpholino)methanone]"
–,90%,"CN(C(=O)c1ccc2c([S+](C)[O-])cn(-c3ncc(-c4ccccc4F)cn3)c2c1)C1CCNC1 (stereo not shown) [Example 58, 1-(5-(2-Fluorophenyl)pyrimidin-2-yl)-N-methyl-3-(methylsulfinyl)-N-(pyrrolidin-3-yl)-1H-indole-6-carboxamide]"
–,64%,"C[S+]([O-])c1cn(-c2ncc(-c3ccccc3F)cn2)c2cc(C(=O)N3C[C@H]4C[C@@H]3CO4)ccc12 (stereo partly drawn) [Example 243, (1R,4R)-2-Oxa-5-azabicyclo[2.2.1]heptan-5-yl(1-(5-(2-fluorophenyl)pyrimidin-2-yl)-3-(methylsulfinyl)-1H-indol-6-yl)methanone]"
–,105%,"C[S+]([O-])c1cn(-c2ncc(-c3ccccc3F)cn2)c2cc(C(=O)N3CCOCC3)ccc12 (single isomer, unassigned) [Example 165, (1-(5-(2-Fluorophenyl)pyrimidin-2-yl)-3-(methylsulfinyl)-1H-indol-6-yl)(morpholino)methanone]"
92%,–,"C[S+]([O-])c1cn(-c2ncc(-c3ccccc3)cn2)c2cc(C(=O)N3CCOCC3)ccc12 (single isomer, unassigned) [Example 164, (3-(Methylsulfinyl)-1-(5-phenylpyrimidin-2-yl)-1H-indol-6-yl)(morpholino)methanone]"
–,73%,"C[S+]([O-])c1cn(-c2ncc(-c3ccccc3F)cn2)c2cc(C(=O)N3CCCCCC3)ccc12 (stereo not shown) [Example 364, Azepan-1-yl(1-(5-(2-fluorophenyl)pyrimidin-2-yl)-3-(methylsulfinyl)-1H-indol-6-yl)methanone]"
–,104%,"C[S+]([O-])c1cn(-c2ncc(-c3ccccc3)cn2)c2cc(C(=O)N3CCOCC3)ccc12 (single isomer, unassigned) [Example 163, (3-(Methylsulfinyl)-1-(5-phenylpyrimidin-2-yl)-1H-indol-6-yl)(morpholino)methanone]"
–,66%,"C[S+]([O-])c1cn(-c2ncc(-c3ccccc3F)cn2)c2cc(C(=O)N3C[C@@H]4CCN[C@@H]4C3)ccc12 (stereo partly drawn) [Example 242, (1-(5-(2-Fluorophenyl)pyrimidin-2-yl)-3-(methylsulfinyl)-1H-indol-6-yl)((3aS,6aS)-hexahydropyrrolo[3,4-b]pyrrol-5(1H)-yl)methanone]"
–,97%,"C[S+]([O-])c1cn(-c2ncc(-c3ccccc3F)cn2)c2cc(C(=O)N3CC[C@@H](O)C3)ccc12 (stereo partly drawn) [Example 66, (1-(5-(2-Fluorophenyl)pyrimidin-2-yl)-3-(methylsulfinyl)-1H-indol-6-yl)((R)-3-hydroxypyrrolidin-1-yl)methanone]"
–,6%,"C[S+]([O-])c1cn(-c2ncc(-c3ccccc3F)cn2)c2cc(C(=O)N3CCS(=O)(=O)CC3)ccc12 (stereo not shown) [Example 390, (1,1-Dioxidothiomorpholino)(1-(5-(2-fluorophenyl)pyrimidin-2-yl)-3-(methylsulfinyl)-1H-indol-6-yl)methanone]"
